Test results taken from ChEMBL document CHEMBL2010711, “Synthesis and comparative evaluation of 4-oxa- and 4-aza-podophyllotoxins as antiproliferative microtubule destabilizing agents” (Bioorg Med Chem Lett, 2012).
Active and inactive are the calls of the source.

Key:
[1] = system: UACC-62; assay: Cytotoxicity against human UACC62 cells after 48 hrs by trypan blue dye exclusion assay; format: functional; conditions: UACC-62, 48 h
[2] = system: NCI/ADR-RES; assay: Cytotoxicity against human NCI/ADR-RES cells after 48 hrs by trypan blue dye exclusion assay; format: functional
[3] = system: KM12; assay: Cytotoxicity against human KM12 cells after 48 hrs by trypan blue dye exclusion assay; format: functional; conditions: KM12, 48 h
[4] = system: OVCAR-8; assay: Cytotoxicity against human OVCAR8 cells after 48 hrs by trypan blue dye exclusion assay; format: functional; conditions: OVCAR-8, 48 h
[5] = system: HOP-92; assay: Cytotoxicity against human HOP92 cells after 48 hrs by trypan blue dye exclusion assay; format: functional; conditions: HOP-92, 48 h
[6] = system: OVCAR-4; assay: Cytotoxicity against human OVCAR4 cells after 48 hrs by trypan blue dye exclusion assay; format: functional; conditions: OVCAR-4, 48 h
[7] = system: SR; assay: Cytotoxicity against human SR cells after 48 hrs by trypan blue dye exclusion assay; format: functional
[8] = system: SK-MEL-28; assay: Cytotoxicity against human SK-MEL-28 cells after 48 hrs by trypan blue dye exclusion assay; format: functional; conditions: SK-MEL-28, 48 h
[9] = system: SN12C; assay: Cytotoxicity against human SN12C cells after 48 hrs by trypan blue dye exclusion assay; format: functional
[10] = system: HT-29; assay: Cytotoxicity against human HT-29 cells after 48 hrs by trypan blue dye exclusion assay; format: functional; conditions: HT-29, 48 h
[11] = system: ACHN; assay: Cytotoxicity against human ACHN cells after 48 hrs by trypan blue dye exclusion assay; format: functional
[12] = system: SNB-75; assay: Cytotoxicity against human SNB75 cells after 48 hrs by trypan blue dye exclusion assay; format: functional; conditions: SNB-75, 48 h
[13] = system: IGROV-1; assay: Cytotoxicity against human IGROV1 cells after 48 hrs by trypan blue dye exclusion assay; format: functional; conditions: IGROV-1, 48 h
[14] = system: HL-60(TB); assay: Cytotoxicity against human HL-60(TB) cells after 48 hrs by trypan blue dye exclusion assay; format: functional; conditions: HL-60, 48 h
[15] = system: MCF7; assay: Cytotoxicity against human MCF7 cells after 48 hrs by trypan blue dye exclusion assay; format: functional; conditions: MCF7, 48 h
[16] = system: A549; assay: Cytotoxicity against human A549 cells after 48 hrs by trypan blue dye exclusion assay; format: functional; conditions: A549, 48 h
[17] = system: OVCAR-5; assay: Cytotoxicity against human OVCAR5 cells after 48 hrs by trypan blue dye exclusion assay; format: functional; conditions: OVCAR-5, 48 h
[18] = system: SF-268; assay: Cytotoxicity against human SF268 cells after 48 hrs by trypan blue dye exclusion assay; format: functional; conditions: SF-268, 48 h
[19] = system: RXF 393; assay: Cytotoxicity against human RXF393 cells after 48 hrs by trypan blue dye exclusion assay; format: functional; conditions: RXF 393, 48 h
[20] = system: SK-MEL-2; assay: Cytotoxicity against human SK-MEL-2 cells after 48 hrs by trypan blue dye exclusion assay; format: functional; conditions: SK-MEL-2, 48 h
[21] = system: SK-MEL-5; assay: Cytotoxicity against human SK-MEL-5 cells after 48 hrs by trypan blue dye exclusion assay; format: functional; conditions: SK-MEL-5, 48 h
[22] = system: RPMI-8226; assay: Cytotoxicity against human RPMI8226 cells after 48 hrs by trypan blue dye exclusion assay; format: functional; conditions: RPMI-8226, 48 h
[23] = system: Paracentrotus lividus; assay: Antimitotic activity against Paracentrotus lividus embryo assessed as cleavage alteration at 2 fold less effective threshold concentration after 2.5 to 6 hrs; format: functional, organism-based
[24] = system: BT-549; assay: Cytotoxicity against human BT549 cells after 48 hrs by trypan blue dye exclusion assay; format: functional; conditions: BT-549, 48 h
[25] = system: NCI-H23; assay: Cytotoxicity against human NCI-H23 cells after 48 hrs by trypan blue dye exclusion assay; format: functional; conditions: NCI-H23, 48 h
[26] = system: OVCAR-3; assay: Cytotoxicity against human OVCAR3 cells after 48 hrs by trypan blue dye exclusion assay; format: functional; conditions: OVCAR-3, 48 h
[27] = system: Paracentrotus lividus; assay: Antimitotic activity against Paracentrotus lividus embryo assessed as cleavage arrest at 2 fold less effective threshold concentration after 2.5 to 6 hrs; format: functional, organism-based
[28] = system: SF-295; assay: Cytotoxicity against human SF295 cells after 48 hrs by trypan blue dye exclusion assay; format: functional; conditions: SF-295, 48 h
[29] = system: CAKI-1; assay: Cytotoxicity against human CAKI-1 cells after 48 hrs by trypan blue dye exclusion assay; format: functional; conditions: CAKI-1, 48 h
[30] = system: A498; assay: Cytotoxicity against human A498 cells after 48 hrs by trypan blue dye exclusion assay; format: functional; conditions: A498, 48 h
[31] = system: DU-145; assay: Cytotoxicity against human DU145 cells after 48 hrs by trypan blue dye exclusion assay; format: functional; conditions: DU-145, 48 h
[32] = system: NCI-H226; assay: Cytotoxicity against human NCI-H226 cells after 48 hrs by trypan blue dye exclusion assay; format: functional; conditions: NCI-H226, 48 h
[33] = system: SNB-19; assay: Cytotoxicity against human SNB19 cells after 48 hrs by trypan blue dye exclusion assay; format: functional; conditions: SNB-19, 48 h
[34] = system: SK-OV-3; assay: Cytotoxicity against human SKOV3 cells after 48 hrs by trypan blue dye exclusion assay; format: functional; conditions: SK-OV-3, 48 h
[35] = system: NCI-H522; assay: Cytotoxicity against human NCI-H522 cells after 48 hrs by trypan blue dye exclusion assay; format: functional; conditions: NCI-H522, 48 h
[36] = system: UO-31; assay: Cytotoxicity against human UO31 cells after 48 hrs by trypan blue dye exclusion assay; format: functional; conditions: UO-31, 48 h
[37] = system: Paracentrotus lividus; assay: Microtubule destabilizing activity in Paracentrotus lividus embryo assessed as embryo spinning at 2 fold less effective threshold concentration after 15 mins to 20 hrs; format: functional, organism-based
[38] = system: MOLT-4; assay: Cytotoxicity against human MOLT4 cells after 48 hrs by trypan blue dye exclusion assay; format: functional; conditions: MOLT-4, 48 h
[39] = system: U-251; assay: Cytotoxicity against human U251 cells after 48 hrs by trypan blue dye exclusion assay; format: functional; conditions: U-251, 48 h
[40] = Cytotoxicity against human Hs 578T cells after 48 hrs by trypan blue dye exclusion assay; format: functional
[41] = system: NCI-H460; assay: Cytotoxicity against human NCI-H460 cells after 48 hrs by trypan blue dye exclusion assay; format: functional; conditions: NCI-H460, 48 h
[42] = system: NCI-H322M; assay: Cytotoxicity against human NCI-H322M cells after 48 hrs by trypan blue dye exclusion assay; format: functional
[43] = system: UACC-257; assay: Cytotoxicity against human UACC257 cells after 48 hrs by trypan blue dye exclusion assay; format: functional; conditions: UACC-257, 48 h
[44] = system: SW-620; assay: Cytotoxicity against human SW620 cells after 48 hrs by trypan blue dye exclusion assay; format: functional; conditions: SW-620, 48 h
[45] = system: HCT-116; assay: Cytotoxicity against human HCT116 cells after 48 hrs by trypan blue dye exclusion assay; format: functional; conditions: HCT-116, 48 h
[46] = system: TK-10; assay: Cytotoxicity against human TK10 cells after 48 hrs by trypan blue dye exclusion assay; format: functional; conditions: TK-10, 48 h
[47] = system: EKVX; assay: Cytotoxicity against human EKVX cells after 48 hrs by trypan blue dye exclusion assay; format: functional
[48] = system: MDA-MB-231; assay: Cytotoxicity against human MDA-MB-231 cells after 48 hrs by trypan blue dye exclusion assay; format: functional; conditions: MDA-MB-231, 48 h
[49] = system: M14; assay: Cytotoxicity against human M14 cells after 48 hrs by trypan blue dye exclusion assay; format: functional; conditions: M14, 48 h
[50] = system: PC-3; assay: Cytotoxicity against human PC3 cells after 48 hrs by trypan blue dye exclusion assay; format: functional; conditions: PC-3, 48 h
[51] = system: HCT-15; assay: Cytotoxicity against human HCT15 cells after 48 hrs by trypan blue dye exclusion assay; format: functional; conditions: HCT-15, 48 h
[52] = system: 786-0; assay: Cytotoxicity against human 786-0 cells after 48 hrs by trypan blue dye exclusion assay; format: functional; conditions: 786-0, 48 h
[53] = system: CCRF-CEM; assay: Cytotoxicity against human CCRF-CEM cells after 48 hrs by trypan blue dye exclusion assay; format: functional
[54] = system: HCC 2998; assay: Cytotoxicity against human HCC2998 cells after 48 hrs by trypan blue dye exclusion assay; format: functional; conditions: HCC 2998, 48 h
[55] = system: COLO 205; assay: Cytotoxicity against human COLO205 cells after 48 hrs by trypan blue dye exclusion assay; format: functional; conditions: COLO 205, 48 h
[56] = system: LOX IMVI; assay: Cytotoxicity against human LOXIMVI cells after 48 hrs by trypan blue dye exclusion assay; format: functional
[57] = system: SF-539; assay: Cytotoxicity against human SF539 cells after 48 hrs by trypan blue dye exclusion assay; format: functional; conditions: SF-539, 48 h
[58] = system: MDA-MB-435; assay: Cytotoxicity against human MDA-MB-435 cells after 48 hrs by trypan blue dye exclusion assay; format: functional; conditions: MDA-MB-435, 48 h
[59] = system: MDA-MB-468; assay: Cytotoxicity against human MDA-MB-468 cells after 48 hrs by trypan blue dye exclusion assay; format: functional; conditions: MDA-MB-468, 48 h

In the case of `COc1cc(OC)cc(C2C3=C(COC3=O)Nc3cc(OC)ccc32)c1` (centres undefined), the GI50 [1] is reported as < 10 nM, the GI50 [2] is reported as < 10 nM and the GI50 [3] is reported as < 10 nM. The GI50 [4] was 20.4 nM, the GI50 [5] was < 10 nM and the GI50 [6] was < 10 nM. The GI50 [7] was < 10 nM, the GI50 [8] was < 10 nM and the GI50 [9] was 16.1 nM. For the same compound, the GI50 [10] was < 10 nM, the GI50 [11] was < 10 nM and the GI50 [12] was < 10 nM. The GI50 [13] was < 10 nM, the GI50 [14] was < 10 nM and the GI50 [15] was < 10 nM. The GI50 [16] was < 10 nM, the GI50 [17] was 40.4 nM and the GI50 [18] was < 10 nM. The GI50 [19] was < 10 nM, the GI50 [20] was 8160 nM and the GI50 [21] was < 10 nM. For the same compound, the GI50 [22] was < 10 nM, the Activity [23] was “inactive” and the GI50 [24] was 13.8 nM. The GI50 [25] was < 10 nM, the GI50 [26] was < 10 nM and the Activity [27] was “inactive”. For the same compound, the GI50 [28] was < 10 nM, the GI50 [29] was < 10 nM and the GI50 [30] was < 10 nM. For the same compound, the GI50 [31] was < 10 nM, the GI50 [32] was 14400 nM and the GI50 [33] was 27.8 nM. For the same compound, the GI50 [34] was < 10 nM, the GI50 [35] was < 10 nM and the GI50 [36] was 48.8 nM. For the same compound, the Activity [37] was “inactive”, the GI50 [38] was < 10 nM and the GI50 [39] was < 10 nM. For the same compound, the GI50 [40] was < 10 nM, the GI50 [41] was < 10 nM and the GI50 [42] was < 10 nM. For the same compound, the GI50 [43] was > 100000 nM, the GI50 [44] was < 10 nM and the GI50 [45] was < 10 nM. For the same compound, the GI50 [46] was 39700 nM, the GI50 [47] was < 10 nM and the GI50 [48] was 16.5 nM. The GI50 [49] was < 10 nM, the GI50 [50] was < 10 nM and the GI50 [51] was < 10 nM. The GI50 [52] was 20.3 nM, the GI50 [53] was < 10 nM and the GI50 [54] was < 10 nM. The GI50 [55] was < 10 nM, the GI50 [56] was < 10 nM and the GI50 [57] was < 10 nM. For the same compound, the GI50 [58] was < 10 nM and the GI50 [59] was < 10 nM.
